The values below come from article PMC12024561, “Production, Biochemical Characterization, and Application of Laccase from Halophilic Curvularia lunata MLK46 Recovered from Mangrove Rhizosphere” (Biology, 2025).

As usually defined, the Km is the concentration of substrate that gives half-maximal velocity.

The assay concerns T1, laccase from C. lunata MLK46 (MLK46 laccase).
T1 construct: gene EC 1.10.3.2; secreted native enzyme purified from culture filtrate (ammonium sulphate, DEAE-Sepharose)
Briefly: spectrophotometric oxidation assay, Lineweaver-Burk. Particulars: free enzyme, O2 as electron acceptor, pH and temperature of kinetics not clearly stated ("stated conditions"). It counts as biochemical, Curvularia lunata.

For the compound `Oc1c(Cl)cccc1Cl` [2,6-dichlorophenol], the Km is 5.55 mM. Take `CCn1c(=NN=c2sc3cc(S(=O)(=O)O)ccc3n2CC)sc2cc(S(=O)(=O)O)ccc21` [ABTS, 2,2’-azino-bis(3-ethylbenzothiazoline-6-sulfonic acid)]: the Michaelis constant (Km) (A420, standard assay at 50 °C) worked out at 4.17 mM. As to `COc1ccccc1O` [guaiacol], the Michaelis-Menten constant (Km) was 10.3 mM. Still for that read-out and setting: the same measure for `COc1cc(-c2ccc(N)c(OC)c2)ccc1N` [o-dianisidine]: 2.7 mM.
